Test results as given in patent US20230143604A1, “QW DOSING OF GIP RECEPTOR AGONIST PEPTIDE COMPOUNDS AND USES THEREOF” (TAKEDA PHARMACEUTICAL COMPANY LIMITED, priority 2020, published 2023).
Starred links: 1 amine or outer side, 2 acyl side, 3 side chain; linkers in the order of their positions; H or OH if unused. Non-standard residues stand in square brackets, D forms with d. Residues, ends and D or L forms follow the SMILES beside them. Groups on a side chain read outwards from the residue. *: point of attachment. C18 diacid = O=C(O)CCCCCCCCCCCCCCCCC(=O)*; γGlu = O=C(O)[C@H](CCC(=O)[*:2])N[*:1]; AEEA = NCCOCCOCC(=O)O; Aib = CC(C)(N)C(=O)O

Assay: physchem
Summary of the method: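 Solubility at pH 7.4 determined by stepwise addition of 200 mM phosphate buffer in 100 μL increments to 3 mg peptide, mixing briefly each time, until no insoluble material remained, then measured by liquid chromatography.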

Compound	solubility (pH 7.4) [mg/mL]	solubility (pH 7.4, aqueous buffer) [mg/mL]
CC[C@H](C)[C@H](NC(=O)[C@H](Cc1ccccc1)NC(=O)[C@@H](NC(=O)CNC(=O)[C@H](CCC(=O)O)NC(=O)C(C)(C)NC(=O)[C@@H](N)Cc1ccc(O)cc1)[C@@H](C)O)C(=O)N[C@@H](CO)C(=O)N[C@@H](CC(=O)O)C(=O)N[C@@H](Cc1ccc(O)cc1)C(=O)N[C@@H](CO)C(=O)N[C@H](C(=O)NC(C)(C)C(=O)N[C@@H](CC(C)C)C(=O)N[C@@H](CC(=O)O)C(=O)N[C@@H](CCCCN)C(=O)N[C@@H](C)C(=O)N[C@@H](C)C(=O)N[C@@H](CCC(N)=O)C(=O)N[C@@H](CCC(N)=O)C(=O)N[C@@H](CCCCNC(=O)COCCOCCNC(=O)COCCOCCNC(=O)CC[C@H](NC(=O)CC[C@H](NC(=O)CCCCCCCCCCCCCCCCC(=O)O)C(=O)O)C(=O)O)C(=O)N[C@@H](Cc1ccccc1)C(=O)N[C@H](C(=O)N[C@@H](CCC(=O)O)C(=O)N[C@@H](Cc1c[nH]c2ccccc12)C(=O)N[C@@H](CC(C)C)C(=O)N[C@@H](CC(C)C)C(=O)N[C@@H](C)C(=O)N[C@@H](CCC(N)=O)C(=O)N[C@@H](CCCNC(=N)N)C(=O)NCC(=O)O)C(C)C)[C@@H](C)CC [Compound 167] (H-Y[Aib]EGTFISDYSI[Aib]LDKAAQQK([AEEA-AEEA-γGlu-γGlu-C18 diacid])FVEWLLAQRG-OH)	≥ 15	≥ 30
CC[C@H](C)[C@H](NC(=O)[C@H](Cc1ccccc1)NC(=O)[C@@H](NC(=O)CNC(=O)[C@H](CCC(=O)O)NC(=O)C(C)(C)NC(=O)[C@@H](N)Cc1ccc(O)cc1)[C@@H](C)O)C(=O)N[C@@H](CO)C(=O)N[C@@H](CC(=O)O)C(=O)N[C@@H](Cc1ccc(O)cc1)C(=O)N[C@@H](CO)C(=O)N[C@H](C(=O)NC(C)(C)C(=O)N[C@@H](CC(C)C)C(=O)N[C@@H](CC(=O)O)C(=O)N[C@@H](CCCCN)C(=O)N[C@@H](C)C(=O)N[C@@H](C)C(=O)N[C@@H](CCC(N)=O)C(=O)N[C@@H](C)C(=O)N[C@@H](CCCCNC(=O)COCCOCCNC(=O)COCCOCCNC(=O)CC[C@H](NC(=O)CC[C@H](NC(=O)CCCCCCCCCCCCCCCCC(=O)O)C(=O)O)C(=O)O)C(=O)N[C@@H](Cc1ccccc1)C(=O)N[C@H](C(=O)N[C@@H](CCC(=O)O)C(=O)N[C@@H](Cc1c[nH]c2ccccc12)C(=O)N[C@@H](CC(C)C)C(=O)N[C@@H](CC(C)C)C(=O)N[C@@H](C)C(=O)N[C@@H](CCC(N)=O)C(=O)N[C@@H](CCCNC(=N)N)C(=O)NCC(=O)O)C(C)C)[C@@H](C)CC [Compound 168] (H-Y[Aib]EGTFISDYSI[Aib]LDKAAQAK([AEEA-AEEA-γGlu-γGlu-C18 diacid])FVEWLLAQRG-OH)	≥ 15	≥ 30
CC[C@H](C)[C@H](NC(=O)[C@H](Cc1ccccc1)NC(=O)[C@@H](NC(=O)CNC(=O)[C@H](CCC(=O)O)NC(=O)C(C)(C)NC(=O)[C@@H](N)Cc1ccc(O)cc1)[C@@H](C)O)C(=O)N[C@@H](CO)C(=O)N[C@@H](CC(=O)O)C(=O)N[C@@H](Cc1ccc(O)cc1)C(=O)N[C@@H](CO)C(=O)N[C@H](C(=O)NC(C)(C)C(=O)N[C@@H](CC(C)C)C(=O)N[C@@H](CC(=O)O)C(=O)N[C@@H](CCCCN)C(=O)N[C@@H](C)C(=O)N[C@@H](CCCCNC(=O)COCCOCCNC(=O)COCCOCCNC(=O)CC[C@H](NC(=O)CCCCCCCCCCCCCCCCC(=O)O)C(=O)O)C(=O)N[C@@H](CCC(N)=O)C(=O)N[C@@H](CCC(N)=O)C(=O)N[C@@H](CC(=O)O)C(=O)N[C@@H](Cc1ccccc1)C(=O)N[C@H](C(=O)N[C@@H](CCC(=O)O)C(=O)N[C@@H](Cc1c[nH]c2ccccc12)C(=O)N[C@@H](CC(C)C)C(=O)N[C@@H](CC(C)C)C(=O)N[C@@H](C)C(=O)N[C@@H](CCC(N)=O)C(=O)N[C@@H](CCCNC(=N)N)C(=O)NCC(=O)O)C(C)C)[C@@H](C)CC [Compound 169] (H-Y[Aib]EGTFISDYSI[Aib]LDKAK([AEEA-AEEA-γGlu-C18 diacid])QQDFVEWLLAQRG-OH)	≥ 15	≥ 30
CC[C@H](C)[C@H](NC(=O)[C@H](Cc1ccccc1)NC(=O)[C@@H](NC(=O)CNC(=O)[C@H](CCC(=O)O)NC(=O)C(C)(C)NC(=O)[C@@H](N)Cc1ccc(O)cc1)[C@@H](C)O)C(=O)N[C@@H](CO)C(=O)N[C@@H](CC(=O)O)C(=O)N[C@@H](Cc1ccc(O)cc1)C(=O)N[C@@H](CO)C(=O)N[C@H](C(=O)NC(C)(C)C(=O)N[C@@H](CC(C)C)C(=O)N[C@@H](CC(=O)O)C(=O)N[C@@H](CCCCN)C(=O)N[C@@H](C)C(=O)N[C@@H](CCCCNC(=O)COCCOCCNC(=O)COCCOCCNC(=O)CC[C@H](NC(=O)CCCCCCCCCCCCCCCCC(=O)O)C(=O)O)C(=O)N[C@@H](CCC(N)=O)C(=O)N[C@@H](CCC(N)=O)C(=O)N[C@@H](CC(=O)O)C(=O)N[C@@H](Cc1ccccc1)C(=O)N[C@H](C(=O)N[C@@H](CC(N)=O)C(=O)N[C@@H](Cc1c[nH]c2ccccc12)C(=O)N[C@@H](CC(C)C)C(=O)N[C@@H](CC(C)C)C(=O)N[C@@H](C)C(=O)N[C@@H](CCC(N)=O)C(=O)N[C@@H](CCCNC(=N)N)C(=O)NCC(=O)O)C(C)C)[C@@H](C)CC [Compound 170] (H-Y[Aib]EGTFISDYSI[Aib]LDKAK([AEEA-AEEA-γGlu-C18 diacid])QQDFVNWLLAQRG-OH)	≥ 15	≥ 30
CC[C@H](C)[C@H](NC(=O)[C@H](Cc1ccccc1)NC(=O)[C@@H](NC(=O)CNC(=O)[C@H](CCC(=O)O)NC(=O)C(C)(C)NC(=O)[C@@H](N)Cc1ccc(O)cc1)[C@@H](C)O)C(=O)N[C@@H](CO)C(=O)N[C@@H](CC(=O)O)C(=O)N[C@@H](Cc1ccc(O)cc1)C(=O)N[C@@H](CO)C(=O)N[C@H](C(=O)NC(C)(C)C(=O)N[C@@H](CC(C)C)C(=O)N[C@@H](CC(=O)O)C(=O)N[C@@H](CCCCN)C(=O)N[C@@H](C)C(=O)N[C@@H](CCCCNC(=O)COCCOCCNC(=O)COCCOCCNC(=O)CC[C@H](NC(=O)CCCCCCCCCCCCCCCCC(=O)O)C(=O)O)C(=O)N[C@@H](CCC(N)=O)C(=O)N[C@@H](C)C(=O)N[C@@H](CC(=O)O)C(=O)N[C@@H](Cc1ccccc1)C(=O)N[C@H](C(=O)N[C@@H](CC(N)=O)C(=O)N[C@@H](Cc1c[nH]c2ccccc12)C(=O)N[C@@H](CC(C)C)C(=O)N[C@@H](CC(C)C)C(=O)N[C@@H](C)C(=O)N[C@@H](CCC(N)=O)C(=O)N[C@@H](CCCNC(=N)N)C(=O)NCC(=O)O)C(C)C)[C@@H](C)CC [Compound 171] (H-Y[Aib]EGTFISDYSI[Aib]LDKAK([AEEA-AEEA-γGlu-C18 diacid])QADFVNWLLAQRG-OH)	≥ 15	≥ 30
CC[C@H](C)[C@H](NC(=O)[C@H](CCCCN)NC(=O)[C@H](CC(=O)O)NC(=O)[C@H](CC(C)C)NC(=O)C(C)(C)NC(=O)[C@@H](NC(=O)[C@H](CO)NC(=O)[C@H](Cc1ccc(O)cc1)NC(=O)[C@H](CC(=O)O)NC(=O)[C@H](CO)NC(=O)[C@@H](NC(=O)[C@H](Cc1ccccc1)NC(=O)[C@@H](NC(=O)CNC(=O)[C@H](CCC(=O)O)NC(=O)C(C)(C)NC(=O)[C@@H](N)Cc1ccc(O)cc1)[C@@H](C)O)[C@@H](C)CC)[C@@H](C)CC)C(=O)N[C@@H](CCCCNC(=O)COCCOCCNC(=O)COCCOCCNC(=O)CC[C@H](NC(=O)CCCCCCCCCCCCCCCCC(=O)O)C(=O)O)C(=O)N[C@@H](CCC(N)=O)C(=O)N[C@@H](C)C(=O)N[C@@H](CC(=O)O)C(=O)N[C@@H](Cc1ccccc1)C(=O)N[C@H](C(=O)N[C@@H](CC(N)=O)C(=O)N[C@@H](Cc1c[nH]c2ccccc12)C(=O)N[C@@H](CC(C)C)C(=O)N[C@@H](CC(C)C)C(=O)N[C@@H](C)C(=O)N[C@@H](CCC(N)=O)C(=O)N[C@@H](CCCNC(=N)N)C(=O)NCC(=O)O)C(C)C [Compound 172] (H-Y[Aib]EGTFISDYSI[Aib]LDKIK([AEEA-AEEA-γGlu-C18 diacid])QADFVNWLLAQRG-OH)	≥ 15	≥ 30
